Consider 38 compounds from patent US20240376126A1, “PRMT5 INHIBITOR AND THE USE THEREOF” (CYTOSINLAB THERAPEUTICS CO., LTD., priority 2022, published 2024).

pIC50: −log10 of the molar value. Like-named read-outs stand apart in the source and are kept apart here.

The test system of experiment [1] is HCT116-MTAP-KO (MTAP null) cells. The experiment can be described thus: Proliferation inhibition of HCT116 MTAP-KO cells in vitro (CellTiter Glo, 6 days). To be noted: 144 h, read-out: Cell proliferation inhibition rate HCT116-MTAP null IC50 (nm). Format: cell-based. A general note: In ATP-based viability assays light output follows the ATP content of the culture.

In experiment [2] the target is PRMT5 MTA (Homo sapiens (Human), UniProt O14744). The experiment can be described thus: PRMT5 inhibitory activity assay in vitro, enzyme solution with MTA ([3H]-SAM Flashplate). Format: biochemical. To be noted: MTA 2.0 um; read-out: Enzyme activity inhibition rate PRMT5 MTA (2.0 um) IC50 (nm). The text has this: Biological Test Example 1 PRMT5 Inhibitory Activity Assay In Vitro
PRMT5 MTA, sequence (O14744 whole entry, looked up): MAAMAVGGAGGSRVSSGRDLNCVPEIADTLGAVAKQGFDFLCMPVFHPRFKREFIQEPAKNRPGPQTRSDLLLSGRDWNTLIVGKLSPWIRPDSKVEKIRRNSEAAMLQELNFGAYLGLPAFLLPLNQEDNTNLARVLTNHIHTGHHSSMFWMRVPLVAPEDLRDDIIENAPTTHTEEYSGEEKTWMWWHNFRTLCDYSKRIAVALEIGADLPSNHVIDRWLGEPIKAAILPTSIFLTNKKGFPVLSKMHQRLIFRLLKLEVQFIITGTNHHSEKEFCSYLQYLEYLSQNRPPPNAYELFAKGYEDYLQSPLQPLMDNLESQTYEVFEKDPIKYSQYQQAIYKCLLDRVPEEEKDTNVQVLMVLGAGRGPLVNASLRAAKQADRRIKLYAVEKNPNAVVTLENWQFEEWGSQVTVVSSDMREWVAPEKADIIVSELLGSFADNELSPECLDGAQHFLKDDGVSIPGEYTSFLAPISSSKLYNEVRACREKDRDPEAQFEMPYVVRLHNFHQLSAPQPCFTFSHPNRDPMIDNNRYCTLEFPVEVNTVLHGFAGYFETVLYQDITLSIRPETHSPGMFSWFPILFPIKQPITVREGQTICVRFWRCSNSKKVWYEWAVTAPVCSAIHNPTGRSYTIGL
PRMT5 MTA, sequence (Q9BQA1 whole entry partner, looked up): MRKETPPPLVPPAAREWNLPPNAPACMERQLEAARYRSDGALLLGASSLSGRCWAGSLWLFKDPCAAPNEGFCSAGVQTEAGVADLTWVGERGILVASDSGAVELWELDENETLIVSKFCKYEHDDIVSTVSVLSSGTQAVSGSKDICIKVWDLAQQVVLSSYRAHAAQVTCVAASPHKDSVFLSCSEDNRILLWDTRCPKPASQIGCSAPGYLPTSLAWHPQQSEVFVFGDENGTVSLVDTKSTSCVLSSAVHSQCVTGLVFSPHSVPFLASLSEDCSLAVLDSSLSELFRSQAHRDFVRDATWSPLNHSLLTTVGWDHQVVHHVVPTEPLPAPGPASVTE
PRMT5 (Active Motiv, catalog number 31921), [^3H]—SAM (Perkin Elmer, catalog number NET155V001MC), SAM (Sigma, catalog number A7007), MTA (Sigma, catalog number D5011), SAH (Sigma, catalog number A9384), 384-well plate (Perkin Elmer, catalog number 6007299), Echo 550 (manufacturer: Labcyte, model: Echo 550), 384-well Flashplate (manufacturer: Perkin Elmer, model: SMP410A001PK)
• (1) 1× Assay buffer (modified Tris buffer) was configured. • (2) Dilute compound: the compound was dissolved in 100% DMSO and the compound solution was added to a 384-well plate using Echo 550. • (3) Configure enzyme solution: PRMT5 was added to 1× assay buffer to prepare enzyme solution 1; PRMT5 and MTA was added to 1× assay buffer to prepare enzyme solution 2. • (4) Configure substrate solution: peptide segments and [3H]—SAM was added to 1× assay buffer. • (5) 15 μL of enzyme solution was added to the 384-well plate, and 15 μL of 1× assay buffer was added to the negative control well, and incubated at room temperature for 30 minutes. • (6) 15 μL of substrate solution was added to each well, and incubated at room temperature for 90 minutes. • (7) Configure termination reaction solution: pre-cooled SAM was added to 1× assay buffer. • (8) 10 μL of termination reaction solution was added to each well to terminate the reaction. • (9) 25 μL/well of the mixed solution was transferred to Flashplate and incubated for 1 hour at room temperature. • (10) the Flashplate three was washed times with dH2O+0.1% Tween-20 solution. • (11) the radiometric values was readed with Microbeta.
• (1) The raw data were converted to % inhibition according to Equation 1.
%inhibition=(Max−Signal)/(Max−Min)*100 Equation 1: • (2) the % inhibition data were entered into XL-Fit Equation 2 to obtain IC50 value:
Y=Bottom+(Top−Bottom)/(1+(IC50/X)[…]) Equation 2: • wherein, Y is the % inhibition, and X is the concentration of the compound.

Experiment [3] deals with HCT116 MTAP WT cells. Nature of the experiment: Proliferation inhibition of HCT116 cells in vitro (CellTiter Glo, 6 days). To be noted: Homo sapiens, HCT-116, 144 h, read-out: Cell proliferation inhibition rate HCT116 MTAP WT IC50 (nm). It counts as cell-based.

For the compound `CC(c1ncccn1)N(Cc1cn2ccccc2n1)C(=O)c1ccc2nc(N)c3c(c2c1)CCC3` (stereo not shown) [Example 1, 4-Amino-N-(pyrazolo[1,5-a]pyridin-2-ylmethyl)-N-(1-(pyrimidin-2-yl)ethyl)-2,3-dihydro-1H-cyclopentadieno[c]quinolin-8-carboxamide], the pIC50 was greater than 7.00 in experiment [1], 8.29 in experiment [2] and 5.00 to 6.00 in experiment [3].
`Cc1cc2cc(C(=O)N(Cc3nc4ccccc4s3)C34CC(C3)C4)ccc2nc1N` [Example 148]: the pIC50 in experiment [2] was 8.59.
Take `Cc1ncn2c1c(N)nc1cc(F)c(C(=O)N(Cc3cn4cc(C(F)(F)F)ccc4n3)c3cnn(C)c3)cc12` [Example 259]: the pIC50 in experiment [1] (HCT116-MTAP null) was greater than 7.00; in experiment [3], 5.00 to 6.00.
For the compound `Cc1ncn2c1c(N)nc1cc(F)c(C(=O)N(Cc3cn4ccccc4n3)C3CCC3O)cc12` (stereo not shown) [Example 261], the values for the pIC50 in experiment [1] (HCT116-MTAP null) and in experiment [3] were 6.00 to 7.00 and 5.00 to 6.00, respectively.
As for `Cc1ncn2c1c(N)nc1cc(F)c(C(=O)N(Cc3cn4ccccc4n3)c3cnn(C)n3)cc12` [Example 262], the pIC50 in experiment [1] (HCT116-MTAP null) is greater than 7.00; in experiment [3], 5.00 to 6.00.
The matching figures for `CCN(Cc1cn2cc(OC)ccc2n1)C(=O)c1cc2c(cc1F)nc(N)c1c(C)ncn12` [Example 263]: 6.00 to 7.00 and 5.00 to 6.00.
For `Cc1ncn2c1c(N)nc1cc(F)c(C(=O)N(CCC#N)Cc3cn4ccccc4n3)cc12` [Example 264], in that order: 6.00 to 7.00 and 5.00 to 6.00.
For `CCN(Cc1cn2cc(F)ccc2n1)C(=O)c1cc2c(cc1F)nc(N)c1c(C)ncn12` [Example 267], in that order: greater than 7.00 and 5.00 to 6.00.
For `CCN(Cc1cn2ccccc2n1)C(=O)c1cc2c(cc1C)nc(N)c1cnc(C)n12` [Example 268], the pIC50 in experiment [1] (HCT116-MTAP null) is 6.00 to 7.00; in experiment [3], 5.00 to 6.00.
As for `Cc1ncn2c1c(N)nc1cc(F)c(C(=O)N(Cc3nc4ccc(C(F)(F)F)cc4[nH]3)CC(C)C)cc12` [Example 269], the pIC50 in experiment [1] (HCT116-MTAP null) was 6.00 to 7.00; in experiment [3], 5.00 to 6.00.
As to `COCC(C)N(Cc1cn2ccccc2n1)C(=O)c1cc2c(cc1F)nc(N)c1c(C)ncn12` (stereo not shown) [Example 271], the pIC50 in experiment [1] (HCT116-MTAP null) was greater than 7.00; in experiment [3], 5.00 to 6.00.
As to `CCN(Cc1cn2c(C)cccc2n1)C(=O)c1cc2c(cc1F)nc(N)c1c(C)ncn12` [Example 272], the results for the pIC50 in experiment [1] (HCT116-MTAP null) and in experiment [3] were 6.00 to 7.00 and 5.00 to 6.00, respectively.
As for `COC1CC(N(Cc2cn3ccccc3n2)C(=O)c2cc3c(cc2F)nc(N)c2c(C)ncn23)C1` (stereo not shown) [Example 273], the pIC50 in experiment [1] (HCT116-MTAP null) was greater than 7.00; in experiment [3] it was 5.00 to 6.00.
The matching figures for `CCN(Cc1cn2ccccc2n1)C(=O)c1cc2c(cc1F)nc(N)c1c(C)ncn12` [Example 274]: 6.00 to 7.00 and 5.00 to 6.00.
Turning to `Cc1ncc2c(N)nc3cc(F)c(C(=O)N(Cc4nc5ccc(C(F)(F)F)cc5[nH]4)CC(C)C)cc3n12` [Example 276], the pIC50 in experiment [1] (HCT116-MTAP null) was 6.00 to 7.00; in experiment [3] it was 5.00 to 6.00.
The matching figures for `Cc1ncn2c1c(N)nc1cc(F)c(C(=O)N(Cc3cn4ccccc4n3)CC(C)C)cc12` [Example 277]: greater than 7.00 and 5.00 to 6.00.
On to `COC1CCCC1N(Cc1cn2ccccc2n1)C(=O)c1cc2c(cc1F)nc(N)c1c(C)ncn12` (stereo not shown) [Example 278], for which the pIC50 in experiment [1] (HCT116-MTAP null) was greater than 7.00; in experiment [3] it was 5.00 to 6.00.
On to `CCN(Cc1cn2ccccc2n1)C(=O)c1ccc2nc(N)c3ncc(C)n3c2c1` [Example 279], for which the pIC50 was 6.00 to 7.00 in experiment [1] (HCT116-MTAP null) and 5.00 to 6.00 in experiment [3].
Consider `Cc1ncn2c1c(N)nc1cc(F)c(C(=O)N(Cc3cn4cc(C(F)(F)F)ccc4n3)C3CCC3O)cc12` (stereo not shown) [Example 280], for which the values for the pIC50 in experiment [1] (HCT116-MTAP null) and in experiment [3] were 6.00 to 7.00 and 5.00 to 6.00, respectively.
Turning to `Cc1ncn2c1c(N)nc1cc(F)c(C(=O)N(Cc3cn4cc(C(F)(F)F)ccc4n3)CC(C)C)cc12` [Example 282], the results for the pIC50 in experiment [1] (HCT116-MTAP null) and in experiment [3] were greater than 7.00 and 5.00 to 6.00, respectively.
For `COC1CCC1N(Cc1cn2cc(C(F)(F)F)ccc2n1)C(=O)c1cc2c(cc1F)nc(N)c1c(C)ncn12` (stereo not shown) [Example 284], in that order: greater than 7.00 and 6.00 to 7.00.
For `COCC(C)N(Cc1cn2cc(C(F)(F)F)ccc2n1)C(=O)c1cc2c(cc1F)nc(N)c1c(C)ncn12` (stereo not shown) [Example 285, 4-Amino-7-fluoro-N-(1-methoxypropan-2-yl)-3-methyl-N-((6-(trifluoromethyl)imidazolo[1,2-a]pyridin-2-yl)methyl)imidazo[1,5-a]quinoxalin-8-carboxamide], the pIC50 in experiment [1] (HCT116-MTAP null) was greater than 7.00; in experiment [3] it was 6.00 to 7.00.
As to `COC1CCC1N(Cc1cn2cc(C(F)(F)F)ccc2n1)C(=O)c1ccc2nc(N)c3c(C)ncn3c2c1` (stereo not shown) [Example 286], the pIC50 was greater than 7.00 in experiment [1] (HCT116-MTAP null) and 5.00 to 6.00 in experiment [3].
Take `COCC(C)N(Cc1cn2cc(C(F)(F)F)ccc2n1)C(=O)c1ccc2nc(N)c3c(C)ncn3c2c1` (stereo not shown) [Example 288]: the values for the pIC50 in experiment [1] (HCT116-MTAP null) and in experiment [3] were greater than 7.00 and 5.00 to 6.00, respectively.
As to `Cc1cnn2c1c(N)nc1ccc(C(=O)N(Cc3cn4cc(C(F)(F)F)ccc4n3)CC(C)C)cc12` [Example 290], the figures for the pIC50 in experiment [1] (HCT116-MTAP null) and in experiment [3] were greater than 7.00 and 5.00 to 6.00, respectively.
For `Cc1ncn2c1c(N)nc1ccc(C(=O)N(c3cnn(C)c3)C(C)c3cn4cc(C(F)(F)F)ccc4n3)cc12` (stereo not shown) [Example 292], the pIC50 in experiment [1] (HCT116-MTAP null) is 6.00 to 7.00; in experiment [3] it was 5.00 to 6.00.
On to `Cc1ncn2c1c(N)nc1ccc(C(=O)N(Cc3cn4cc(C(F)(F)F)ccc4n3)c3cnn(C)c3)cc12` [Example 293], for which the pIC50 in experiment [1] (HCT116-MTAP null) is 6.00 to 7.00; in experiment [3], 5.00 to 6.00.
On to `COC1CCCC1N(Cc1cn2cc(C(F)(F)F)ccc2n1)C(=O)c1ccc2nc(N)c3c(C)ncn3c2c1` (stereo not shown) [Example 294], for which the pIC50 was greater than 7.00 in experiment [1] (HCT116-MTAP null) and 5.00 to 6.00 in experiment [3].
Turning to `Cc1ncn2c1c(N)nc1ccc(C(=O)N(CC(C)C)C(C)c3cn4cc(C(F)(F)F)ccc4n3)cc12` (stereo not shown) [Example 296], the pIC50 in experiment [1] (HCT116-MTAP null) is 6.00 to 7.00; in experiment [3], 5.00 to 6.00.
The matching figures for `Cc1ncn2c1c(N)nc1ccc(C(=O)N(Cc3cn4ccccc4n3)CC(C)C)cc12` [Example 297]: greater than 7.00 and 5.00 to 6.00.
As to `CCN(C(=O)c1ccc2nc(N)c3c(C)ncn3c2c1)C(C)c1cn2ccccc2n1` (stereo not shown) [Example 298], the pIC50 in experiment [1] (HCT116-MTAP null) is 6.00 to 7.00; in experiment [3], 5.00 to 6.00.
As to `Cc1ncn2c1c(N)nc1ccc(C(=O)N(Cc3cn4cc(C(F)(F)F)ccc4n3)CC(C)C)cc12` [Example 299], the pIC50 was greater than 7.00 in experiment [1] (HCT116-MTAP null) and 5.00 to 6.00 in experiment [3].
Turning to `Cc1ncc2c(N)nc3ccc(C(=O)N(Cc4cn5cc(C(F)(F)F)ccc5n4)c4c(F)cnn4C)cc3n12` [Example 300], the pIC50 was greater than 7.00 in experiment [1] (HCT116-MTAP null) and 5.00 to 6.00 in experiment [3].
For the compound `Cc1ncc2c(N)nc3cnc(C(=O)N(Cc4cn5cc(C(F)(F)F)ccc5n4)c4c(F)cnn4C)cc3n12` [Example 302], the pIC50 in experiment [1] (HCT116-MTAP null) was greater than 7.00; in experiment [3], 6.00 to 7.00.
In the case of `Cc1ncc2c(N)nc3cc(F)c(C(=O)N(Cc4cn5cc(C(F)F)ccc5n4)c4c(F)cnn4C)cc3n12` [Example 303], the pIC50 in experiment [1] (HCT116-MTAP null) is greater than 7.00; in experiment [3], 6.00 to 7.00.
`CC(c1ncccn1)N(Cc1nc2cnccc2s1)C(=O)c1ccc2nc(N)c3c(c2c1)COC3` (stereo not shown) [Example 304, 4-Amino-N-(1-(pyrimidin-2-yl)ethyl)-N-(thiazolo[4,5-c]pyridin-2-ylmethyl)-1,3-dihydrofurano[3,4-c]quinolin-8-carboxamide]: the pIC50 in experiment [1] (HCT116-MTAP null) was greater than 7.00; in experiment [3], 6.00 to 7.00.
Take `Cc1nn(C)cc1N(Cc1cn2cc(C(F)(F)F)ccc2n1)C(=O)c1ccc2nc(N)c3c(c2c1)CO[C@@H]3C` [Example 305, (3R)-4-Amino-N-(1,3-dimethylpyrazol-4-yl)-3-methyl-N-[[6-(trifluoromethyl)imidazo[1,2-a]pyridin-2-yl]methyl]-1,3-dihydrofurano[3,4-c]quinolin-8-carboxamide]: the results for the pIC50 in experiment [1] (HCT116-MTAP null) and in experiment [3] were greater than 7.00 and 5.00 to 6.00, respectively.
The matching figures for `Cc1nn(C)cc1N(Cc1cn2cc(C(F)(F)F)ccc2n1)C(=O)c1ccc2nc(N)c3c(c2c1)COC3C` (stereo not shown) [Example 313, 4-Amino-N-(1,3-dimethylpyrazol-4-yl)-3-methyl-N-[[6-(trifluoromethyl)imidazolo[1,2-a]pyridin-2-yl]methyl]-1,3-dihydrofurano[3,4-c]quinolin-8-carboxamide]: greater than 7.00 and 5.00 to 6.00.
